Measurements reported in US8871787B2, “Stable crystalline salt of (R)-3-fluorophenyl-3,4,5-trifluorobenzylcarbamic acid 1-azabicyclo [2.2.2]oct-3-yl ester” (Laboratorios Salvat, S.A., priority 2007, dated 2014).

Test system: patients suffering from Overactive Bladder syndrome
Experiment: Phase II clinical trial: pharmacodynamics in overactive bladder patients (urodynamic assessments, tolerability)
Conditions: 4 mg o.d., 4 weeks
Method: A pharmacodynamic study of tarafenacin tartrate in patients suffering from Overactive Bladder syndrome was performed to obtain first efficacy and tolerability data in this population.
The study was randomised, double-blind, placebo and active-controlled. Patients received tarafenacin tartrate at the dose of 0.1 or 0.2 mg, tolterodine 4 mg or placebo o.d. during 4 weeks, just after a 2 week single-blind wash-out period in which all patients received placebo. Urodynamic assessments were performed at baseline and after 4 weeks administration.
It was planned to screen approximately 100 patients and randomize 77 patients, to obtain outcome data on 63 patients. Patients who entered the study were randomized into the four treatment groups during the double blind treatment period.
After a Screening visit and a 14 day washout single blind period (placebo run in), patients were randomized to one of the four treatment arms by a 2:2:2:1 randomization schedule. In a single blind period, only the patients were blinded. During the treatment period, each patient received tarafenacin tartrate 0.1 mg/tarafenacin tartrate 0.2 mg/tolterodine (ER) 4 mg/placebo. Identical capsules were used to maintain the study blind.
The end of study procedures were performed at the Day 28 visit (End of Treatment [EOT]). A study follow up was conducted at Day 35 either telephonically or the patient was called to the clinic (End of Study [EOS]).
The primary endpoint was the pharmacodynamic endpoints and they were assessed as the mean change from baseline to Day 28 in urodynamic, salivary flow, and accommodation near point pharmacodynamic assessments.

| Compound | incidence of treatment emergent adverse events |
| --- | --- |
| Cc1ccc(O)c([C@H](CCN(C(C)C)C(C)C)c2ccccc2)c1 [tolterodine, reference compound] | 36% |

Same assay, conditions: human, in vivo

| Compound | increase in infused volume | increase in volume at first desire to void | increase in volume at strong desire to void |
| --- | --- | --- | --- |
| Cc1ccc(O)c([C@H](CCN(C(C)C)C(C)C)c2ccccc2)c1 [tolterodine, reference compound] | 20 mL | 33 mL | 42 mL |

Test system: not listed separately
Experiment: Salt screening of compound I with several acids (aspect of the salt)
Assay type: physicochemical
Conditions: free base and acid in hot ethanol, cooled, solvent evaporated
Method: To select the most suitable salt of compound I and minimize the undesirable hygroscopic properties of the hydrochloride, several acids were tested. The free base of compound I was dissolved in hot ethanol, and then acid solution in hot ethanol was added. The mixture was then stirred and heated for 30 min. After cooling to room temperature, the solvent was removed by evaporation. […]

| Compound | Aspect of the salt |
| --- | --- |
| O=C(O)C(O)C(O)C(=O)O.O=C(OC1CN2CCC1CC2)N(Cc1cc(F)c(F)c(F)c1)c1cccc(F)c1 (racemic) | Adding MTBE precipitated a white solid |
| CC1(C)C2CCC1(CS(=O)(=O)O)C(=O)C2.O=C(OC1CN2CCC1CC2)N(Cc1cc(F)c(F)c(F)c1)c1cccc(F)c1 (racemic) [(RS)-10-Camphorsulfonic] | Hygroscopic pink foam |
| CC(O)C(=O)O.O=C(OC1CN2CCC1CC2)N(Cc1cc(F)c(F)c(F)c1)c1cccc(F)c1 (racemic) [DL-Lactic] | Oil |
| O=C(O)CC(O)C(=O)O.O=C(OC1CN2CCC1CC2)N(Cc1cc(F)c(F)c(F)c1)c1cccc(F)c1.O=C(OC1CN2CCC1CC2)N(Cc1cc(F)c(F)c(F)c1)c1cccc(F)c1 (racemic) [DL-Malic (0.5 eq)] | Hygroscopic red foam |
| O=C(O)CC(O)C(=O)O.O=C(OC1CN2CCC1CC2)N(Cc1cc(F)c(F)c(F)c1)c1cccc(F)c1 (racemic) [DL-Malic] | Hygroscopic red foam |
| CC1(C)C2CCC1(CS(=O)(=O)O)C(=O)C2.O=C(OC1CN2CCC1CC2)N(Cc1cc(F)c(F)c(F)c1)c1cccc(F)c1 [(S)-10-Camphorsulfonic] | Oil |
| O=C(O)C(O)c1ccccc1.O=C(OC1CN2CCC1CC2)N(Cc1cc(F)c(F)c(F)c1)c1cccc(F)c1 [(S)-Mandelic] | Oil |
| O=C(OC1CN2CCC1CC2)N(Cc1cc(F)c(F)c(F)c1)c1cccc(F)c1.O=S(=O)(O)c1ccccc1 (stereo not shown) [Benzenesulphonic] | Oil |
| O=C(O)CC(O)C(=O)O.O=C(OC1CN2CCC1CC2)N(Cc1cc(F)c(F)c(F)c1)c1cccc(F)c1.O=C(OC1CN2CCC1CC2)N(Cc1cc(F)c(F)c(F)c1)c1cccc(F)c1 [D-Malic (0.5 eq)] | Hygroscopic red foam |
| O=C(O)CC(O)C(=O)O.O=C(OC1CN2CCC1CC2)N(Cc1cc(F)c(F)c(F)c1)c1cccc(F)c1 [D-Malic] | Hygroscopic red foam |
| O=C(O)C(O)C(O)C(=O)O.O=C(OC1CN2CCC1CC2)N(Cc1cc(F)c(F)c(F)c1)c1cccc(F)c1.O=C(OC1CN2CCC1CC2)N(Cc1cc(F)c(F)c(F)c1)c1cccc(F)c1 [D-Tartaric (0.5 eq)] | White solid crystal precipitated in EtOH. |
| O=C(O)C=CC(=O)O.O=C(OC1CN2CCC1CC2)N(Cc1cc(F)c(F)c(F)c1)c1cccc(F)c1.O=C(OC1CN2CCC1CC2)N(Cc1cc(F)c(F)c(F)c1)c1cccc(F)c1 (stereo not shown) [Fumaric (0.5 eq)] | White foam |
| O=C(OC1CN2CCC1CC2)N(Cc1cc(F)c(F)c(F)c1)c1cccc(F)c1.O=C1OC(C(O)CO)C(O)=C1O (stereo not drawn) [L(+)-Ascorbic] | White foam |
| O=C(O)CC(O)C(=O)O.O=C(OC1CN2CCC1CC2)N(Cc1cc(F)c(F)c(F)c1)c1cccc(F)c1.O=C(OC1CN2CCC1CC2)N(Cc1cc(F)c(F)c(F)c1)c1cccc(F)c1 [L-Malic (0.5 eq)] | Oil |
| O=C(O)CC(O)C(=O)O.O=C(OC1CN2CCC1CC2)N(Cc1cc(F)c(F)c(F)c1)c1cccc(F)c1 [L-Malic] | Oil |
| O=C(O)C(O)C(O)C(=O)O.O=C(OC1CN2CCC1CC2)N(Cc1cc(F)c(F)c(F)c1)c1cccc(F)c1.O=C(OC1CN2CCC1CC2)N(Cc1cc(F)c(F)c(F)c1)c1cccc(F)c1 [L-Tartaric (0.5 eq)] | White foam |
| O=C(O)C=CC(=O)O.O=C(OC1CN2CCC1CC2)N(Cc1cc(F)c(F)c(F)c1)c1cccc(F)c1 (stereo not shown) [Maleic] | Oil |
| O=C(O)CC(=O)O [Malonic] | Oil |
| O=C(O)C(O)c1ccccc1.O=C(OC1CN2CCC1CC2)N(Cc1cc(F)c(F)c(F)c1)c1cccc(F)c1 (stereo not shown) [Mandelic] | White foam |
| CS(=O)(=O)O.O=C(OC1CN2CCC1CC2)N(Cc1cc(F)c(F)c(F)c1)c1cccc(F)c1 (stereo not shown) [Methanesulphonic] | Oil |
| O=C(O)C(=O)O.O=C(OC1CN2CCC1CC2)N(Cc1cc(F)c(F)c(F)c1)c1cccc(F)c1 (stereo not shown) [Oxalic] | Hygroscopic white foam |
| CC=CC=CC(=O)O.O=C(OC1CN2CCC1CC2)N(Cc1cc(F)c(F)c(F)c1)c1cccc(F)c1 (stereo not shown) [Sorbic] | Oil |
| O=C(O)CCC(=O)O [Succinic] | Hygroscopic white foam |
| Citric | Oil |
| Fumaric | White foam |
| L-Tartaric | White foam |
| Propionic | Hygroscopic white foam |
